{
  "source": "patent US8268817B2",
  "about": "“Substituted oxazole ketone modulators of fatty acid amide hydrolase” (The Scripps Research Institute, priority 2006, dated 2012)",
  "key": {"[1]": {"conditions": "model of multiple sclerosis; cited from earlier work"}, "[2]": {"conditions": "rats; cited from earlier work"}, "[3]": {"conditions": "rats; cited from earlier work", "remark": "listed apart in the source"}, "[4]": {"target": "T1, FAAH (solubilized liver plasma membrane extract) (Rattus norvegicus, UniProt P97612)", "T1 construct": "using a solubilized liver plasma membrane extract containing FAAH; from tissue; host or cells: liver (plasma membrane extract, solubilized)", "T1 sequence (P97612 1-579)": "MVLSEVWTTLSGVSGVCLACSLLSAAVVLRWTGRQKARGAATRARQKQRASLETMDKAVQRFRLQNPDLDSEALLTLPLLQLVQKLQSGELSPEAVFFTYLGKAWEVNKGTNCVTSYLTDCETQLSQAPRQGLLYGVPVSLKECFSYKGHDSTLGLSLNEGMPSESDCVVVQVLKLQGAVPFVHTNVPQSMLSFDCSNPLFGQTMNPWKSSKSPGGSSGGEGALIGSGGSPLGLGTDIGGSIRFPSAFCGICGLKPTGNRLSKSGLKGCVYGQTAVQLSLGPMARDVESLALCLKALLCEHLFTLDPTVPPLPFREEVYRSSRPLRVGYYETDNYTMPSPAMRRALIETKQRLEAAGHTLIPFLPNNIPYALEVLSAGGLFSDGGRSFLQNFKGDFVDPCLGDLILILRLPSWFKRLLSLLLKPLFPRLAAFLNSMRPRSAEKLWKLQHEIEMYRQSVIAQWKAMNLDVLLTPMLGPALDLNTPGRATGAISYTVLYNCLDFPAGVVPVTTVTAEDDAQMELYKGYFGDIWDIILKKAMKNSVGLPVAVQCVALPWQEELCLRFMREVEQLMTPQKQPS", "assay": "FAAH enzyme assay, hydrolysis of 14C-oleamide to oleic acid", "type": "biochemical", "conditions": "14C-oleamide substrate, pH 9.0, 20-23° C., Dixon method", "procedure": "K; values were determined by the Dixon. Method (x-intercepts of weighted linear fits of [I] versus 1/rate plots at constant substrate concentration, which were converted to Ki values using the formula Ki=−xint/[1+[S]/Km])."}, "[5]": {"conditions": "rats; cited from earlier work", "remark": "listed apart in the source"}, "FAAH": {"target": "T2, FAAH (Homo sapiens, UniProt O00519)", "T2 sequence (O00519 1-579)": "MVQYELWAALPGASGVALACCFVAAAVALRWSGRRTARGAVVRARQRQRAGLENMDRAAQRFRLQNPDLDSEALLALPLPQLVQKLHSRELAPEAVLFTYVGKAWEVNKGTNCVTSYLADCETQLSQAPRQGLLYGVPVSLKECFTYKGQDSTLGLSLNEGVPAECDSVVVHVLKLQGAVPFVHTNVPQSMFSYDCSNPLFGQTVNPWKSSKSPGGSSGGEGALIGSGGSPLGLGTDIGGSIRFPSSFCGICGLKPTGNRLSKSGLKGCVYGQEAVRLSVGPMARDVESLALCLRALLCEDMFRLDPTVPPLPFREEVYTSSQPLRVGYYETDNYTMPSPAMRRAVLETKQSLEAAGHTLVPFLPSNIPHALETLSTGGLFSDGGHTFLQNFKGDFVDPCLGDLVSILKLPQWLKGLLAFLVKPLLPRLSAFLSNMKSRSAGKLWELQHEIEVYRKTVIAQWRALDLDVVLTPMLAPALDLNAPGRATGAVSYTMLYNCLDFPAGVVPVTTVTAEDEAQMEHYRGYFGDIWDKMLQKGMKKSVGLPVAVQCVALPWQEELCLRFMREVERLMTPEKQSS", "conditions": "cited from earlier work"}, "[6]": {"conditions": "rats; cited from earlier work", "remark": "listed apart in the source"}, "[7]": {"conditions": "rats; cited from earlier work", "remark": "listed apart in the source"}, "[8]": {"conditions": "rat; cited from earlier work"}},
  "data": [
    {"molecule": "CCCCCCCCCCCCCCCCS(=O)(=O)F", "note": "[AM374]", "values": [
      {"measurement": "effect on spasticity in CREAE mice", "setting": "[1]", "value": "significantly reduce spasticity"}
    ]},
    {"molecule": "Cc1nc(-c2ccccc2)c(-c2ccccc2)n1CCCCCCNC(=O)Oc1ccccc1F", "note": "[BMS-1]", "values": [
      {"measurement": "analgesic effect in Chung spinal nerve ligation model", "setting": "[2]", "value": "analgesic effect"},
      {"measurement": "analgesic effect in Hargraves test", "setting": "[3]", "value": "analgesic effect"}
    ]},
    {"molecule": "O=C(CCCCCCc1ccccc1)c1ncc(C(=O)N2CCOCC2)o1", "note": "[Example 4, 1-(5-(Morpholine-4-carbonyl)oxazol-2-yl)-7-phenylheptan-1-one]", "values": [
      {"measurement": "Ki", "setting": "[4]", "value": 0.024, "unit": "µM"}
    ]},
    {"molecule": "O=C(CCCCCCc1ccccc1)c1ncc(C(=O)N2CCCCC2)o1", "note": "[Example 5, 7-Phenyl-1-(5-(piperidine-1-carbonyl)oxazol-2-yl)heptan-1-one]", "values": [
      {"measurement": "Ki", "setting": "[4]", "value": 0.008, "unit": "µM"}
    ]},
    {"molecule": "O=C(CCCCCCc1ccccc1)c1ncc(C(=O)N2CCSCC2)o1", "note": "[Example 6, 7-Phenyl-1-(5-(thiomorpholine-4-carbonyl)oxazol-2-yl)heptan-1-one]", "values": [
      {"measurement": "Ki", "setting": "[4]", "value": 0.01, "unit": "µM"}
    ]},
    {"molecule": "CN1CCN(C(=O)c2cnc(C(=O)CCCCCCc3ccccc3)o2)CC1", "note": "[Example 7, 1-(5-(4-Methylpiperazine-1-carbonyl)oxazol-2-yl)-7-phenylheptan-1-one]", "values": [
      {"measurement": "Ki", "setting": "[4]", "value": 0.08, "unit": "µM"}
    ]},
    {"molecule": "CNC(=O)c1cnc(C(=O)CCCCCCc2ccccc2)o1", "note": "[Example 8, N-Methyl-2-(7-phenylheptanoyl)oxazole-5-carboxamide]", "values": [
      {"measurement": "Ki", "setting": "[4]", "value": 0.007, "unit": "µM"}
    ]},
    {"molecule": "O=C(CCCCCCc1ccccc1)c1ncc(S(=O)(=O)C(F)(F)F)o1", "note": "[Example 22, 7-Phenyl-1-(5-(trifluoromethylsulfonyl)oxazol-2-yl)heptan-1-one]", "values": [
      {"measurement": "Ki", "setting": "[4]", "value": "> 0.002", "unit": "µM"}
    ]},
    {"molecule": "O=C(CCCCCCc1ccccc1)c1ncc(-c2ccccn2)o1", "note": "[OL-135]", "values": [
      {"measurement": "analgesic efficacy in hot plate test", "setting": "[5]", "value": "analgesic activity"},
      {"measurement": "inhibition of FAAH", "setting": "FAAH", "value": "potent inhibitor"},
      {"measurement": "analgesic activity in tail emersion test", "setting": "[6]", "value": "analgesic activity"}
    ]},
    {"molecule": "NC(=O)c1cccc(-c2cccc(OC(=O)NC3CCCCC3)c2)c1", "note": "[URB-597]", "values": [
      {"measurement": "efficacy in zero plus maze model of anxiety", "setting": "[7]", "value": "efficacy"},
      {"measurement": "analgesic efficacy in hot plate test", "setting": "[5]", "value": "analgesic efficacy"},
      {"measurement": "analgesic efficacy in formalin test", "setting": "[8]", "value": "analgesic efficacy"}
    ]}
  ]
}
